According to US9642854B2, “Flavanoid compounds and process for preparation thereof” (Council of Scientific & Industrial Research, priority 2009, dated 2017):
Values after ≈ are worked out from the molar mass of the structure shown. Like-named read-outs stand apart in the source and are kept apart here.

Key:
H. pylori [1] = assay: Time kill kinetic analyses in biphasic culture; assay type: cell-based, Helicobacter pylori
H. pylori [2] = assay: Acid stability study (pH ~2.0, 2 h, then MIC/MBC by microbroth dilution); assay type: cell-based, Helicobacter pylori; conditions: for MBC / MIC: Helicobacter pylori
Method: Details of experimental protocol are described under Experiment 7. MIC/MBC values were determined by microbroth dilution assay.
A 100 μL stock of CPP-1, NMC-1, NMC-2 and CPP-3 (1-2 mg/mL) was treated with 20-30 μL of 0.12 NHCl to bring the pH of the solution to ^˜2.0, and kept at 25° C. for 2 h (Funatogawa et al., 2004). Such acid-treated samples were then serially diluted (2 fold) with medium in 96-well microtitre plates to determine the MIC and the MBC values by microbroth dilution assay as detailed under Experiment 3.

[3] = system: H. pylori clinical strain HP001; assay: Acridine orange fluorescence microscopy of morphological transformation; assay type: cell-based, Helicobacter pylori; conditions: 24 h
Method: Acridine orange fluorescence microscopic evidence is provided. The details of experimental procedures are provided under Experiment 9.
For the purpose of fluorescence staining, a bacterial smear was prepared, fixed with methanol for 2 min, stained with 0.1% acridine orange solution for 2-3 min, rinsed thoroughly with distilled water (Haqqani, 2001) and observed under fluorescence microscopy using 1-3 filter (emission wavelength 510 nm). The live organism appeared as orange color in the dark background and the non-viable cells as green (Shirai et al., 2000).

H. pylori ATCC 43504 = assay: Transmission electron microscopy of morphological transformation; assay type: cell-based, Helicobacter pylori; conditions: 24 h
Source text: The morphological alteration of H. pylori cells (ATCC® 43504) exposed to various concentrations of CPP-1 was further examined using transmission electron microscopy (Dai et al., 2005). […] Samples were dehydrated, embedded in SPUR, sections cut and applied to copper grids. The grids were contrasted with uranyl acetate and lead citrate and the sections were examined on a transmission electron microscope.

[4] = molecular target: T1, pig gastric H^+,K^+-ATPase (Sus scrofa, UniProt P19156); assay: Gastric H+,K+-ATPase activity assay; assay type: biochemical
T1 construct: tubulovesicular and apical membranes, isolated from freshly slaughtered pig gastric mucosa; from tissue; host or cells: pig gastric mucosa (membrane fraction by density gradient centrifugation)
T1 sequence (P19156 2-1034 limits assumed): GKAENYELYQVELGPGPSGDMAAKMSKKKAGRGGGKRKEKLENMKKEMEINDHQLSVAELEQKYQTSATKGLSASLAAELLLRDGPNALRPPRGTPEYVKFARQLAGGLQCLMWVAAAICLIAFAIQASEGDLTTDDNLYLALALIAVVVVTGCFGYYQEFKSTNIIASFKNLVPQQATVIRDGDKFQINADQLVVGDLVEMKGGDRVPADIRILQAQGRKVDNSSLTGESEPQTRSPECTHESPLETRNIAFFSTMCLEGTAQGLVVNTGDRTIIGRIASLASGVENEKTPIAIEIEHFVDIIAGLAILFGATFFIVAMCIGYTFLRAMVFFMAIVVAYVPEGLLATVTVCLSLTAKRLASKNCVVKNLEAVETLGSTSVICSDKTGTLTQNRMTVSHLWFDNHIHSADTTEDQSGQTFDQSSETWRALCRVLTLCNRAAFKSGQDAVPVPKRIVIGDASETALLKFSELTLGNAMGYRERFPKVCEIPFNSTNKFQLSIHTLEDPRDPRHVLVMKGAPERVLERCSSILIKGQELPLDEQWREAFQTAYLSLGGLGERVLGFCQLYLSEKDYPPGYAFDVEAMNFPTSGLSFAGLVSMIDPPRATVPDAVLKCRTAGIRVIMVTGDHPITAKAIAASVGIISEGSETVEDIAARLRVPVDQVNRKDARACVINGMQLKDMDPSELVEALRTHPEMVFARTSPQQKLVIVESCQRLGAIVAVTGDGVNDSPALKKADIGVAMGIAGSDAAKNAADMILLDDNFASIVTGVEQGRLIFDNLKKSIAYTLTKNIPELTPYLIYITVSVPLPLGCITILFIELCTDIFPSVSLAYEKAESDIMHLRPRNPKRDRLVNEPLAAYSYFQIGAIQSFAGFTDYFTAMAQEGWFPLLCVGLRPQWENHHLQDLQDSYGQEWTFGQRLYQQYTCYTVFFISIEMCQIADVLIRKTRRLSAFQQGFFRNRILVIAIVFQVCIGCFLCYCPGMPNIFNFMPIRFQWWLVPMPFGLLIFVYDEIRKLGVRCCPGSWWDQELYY
T1 sequence (P18434 whole entry partner): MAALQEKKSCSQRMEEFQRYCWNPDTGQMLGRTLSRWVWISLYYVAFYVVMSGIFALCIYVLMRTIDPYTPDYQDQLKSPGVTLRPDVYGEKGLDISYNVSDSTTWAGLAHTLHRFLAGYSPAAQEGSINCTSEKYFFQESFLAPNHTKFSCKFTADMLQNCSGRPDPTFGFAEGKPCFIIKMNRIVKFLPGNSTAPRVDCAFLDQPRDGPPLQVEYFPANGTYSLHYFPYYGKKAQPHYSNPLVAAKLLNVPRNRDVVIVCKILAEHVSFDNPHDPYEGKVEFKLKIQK
Method: The data are averages of 3-4 determinations each carried out in triplicate. The assay system contained 10 mM PIPES-Tris (pH 6.8), 2 mM each of ATP and MgCl2 with or without 10 mM KCl and about […] in a final volume of 1 mL. Both blank and experimental tubes with or without CPP-1 at different concentrations were preincubated with otherwise complete assay mixture at 37° C. for 10 min before initiating the reaction with the substrate ATP. K^+-stimulated activity referred to as H^+,K^+-ATPase activity, was calculated as the difference between the activity in presence of Mg^2+ plus K^+ and the basal activity (Mg^2+-ATPase) in presence of Mg2^+ alone. The specific activity of H^+,K^+-ATPase in control sets was in the range of 40-50 μmole Pi/mg protein/h.
The effect of CPP-1 on gastric H^+K^+-ATPase was investigated. Isolation of pig gastric mucosal membranes, rich in H^+,K^+-ATPase activity, was carried out by density gradient centrifugation technique (Ray, 1978). The enzyme assay system contained 10 mM PIPES-Tris (pH 6.8), 2 mM each of ATP and MgCl with or without 10 mM KCl and about […] in a final volume of 1 mL. Both blank and experimental tubes with or without CPP-1 at different concentrations were preincubated with otherwise complete assay mixture at 37° C. for 10 min before initiating the reaction with the substrate ATP. After appropriate time of incubation with ATP at 37° C., the reaction was terminated with the addition of 1 mL of ice-cold TCA (14%, w/v). The liberated inorganic phosphate (Pi) was estimated essentially by the method of Sanui (1974). K^+-stimulated activity referred to as H^+,K^+-ATPase activity, was calculated as the difference between the activity in presence of Mg^2+ plus K^+ and the basal activity (Mg^2+-ATPase) in presence of Mg^2+ alone. The specific activity of H^+,K^+-ATPase was expressed as micromoles of Pi liberated per hour per milligram protein. The data are averages of 3-4 determinations each carried out in triplicate. The specific activity of H^+,K^+-ATPase in control sets was in the range of 40-50 μmole Pi/mg protein/h.

gastric parietal cell [5] = assay: Basal acid secretion in gastric parietal cell ([14C]-aminopyrine uptake ratio); assay type: cell-based, rabbit
Method: Dose-dependent inhibition of aminopyrine (AP) uptake ratio in parietal cell suspension after CPP-1 treatment was measured.
(§1) Parietal cells (PC) were isolated from New Zealand White rabbits (weighing ^˜2.5 kg) essentially according to Berglindh (1984) and as modified by Mazzeo et al. (1988). The PC preparations were nearly 90% pure and viable. The effect of CPP-1 on basal and histamine stimulated acid secretion in parietal cells was examined as follows. The PC suspension was incubated for 10 min at 37° C. with gentle stirring and continuous slow top gassing with oxygen. The [^14C]-aminopyrine (115 mCi/mmole) was added to the suspension at […], and incubation was continued for another 10 min. One-milliliter aliquot of PC (^˜5×10^6 cells) was added to various concentrations of CPP-1 in the presence and the absence of histamine (0.1 mM) and incubated for 20 min at 37° C. with slow shaking and oxygen top gassing. At the end of the incubation, the PC suspensions were centrifuged, supernatant carefully aspired off and the pellets solubilized in scintillation fluid containing Triton X-100. The resulting solution was counted in a liquid scintillation counter. The aminopyrine accumulation was determined as the ratio of intra- to extracellular aminopyrine according to Mazzeo et al. (1988).

gastric parietal cell [6] = assay: Histamine-stimulated acid secretion in gastric parietal cell ([14C]-aminopyrine uptake ratio); assay type: cell-based, rabbit; conditions: histamine 0.1 mM
Method: Dose-dependent inhibition of histamine-stimulated aminopyrine (AP) uptake ratio in parietal cell suspension after CPP-1 treatment was measured.
as §1

O=c1cc(-c2ccccc2)oc2cc(OCCCCCCN3CCCCC3)cc(O)c12 [CPP-1, 5-Hydroxy-2-phenyl-7-(6-piperidin-1-yl-hexyloxy)-chromen-4-one]
decrease in cell count within 36 h (H. pylori [1]; ATCC 43504, 0.5×MIC (3.125 μg/mL)): f-log decrease in cell count
time to complete killing (H. pylori [1]; ATCC 43504, 1×MIC (6.25 μg/mL)): ≤ 36 h
time at which killing/inhibition became evident (H. pylori [1]; HP001, biphasic culture): ≤ 6 h
killing at MIC dose (1×MIC) (H. pylori [1]; HP001, up to 36 h): not high enough to produce total bactericidal activity
MBC (H. pylori [2]; 2 h, pH ~2.0, 2 h, 25° C., 43504, read-out: MBC, Acid treated): 25000 µg/mL (≈ 59.3 mM)
MIC (H. pylori [2]; 2 h, pH ~2.0, 2 h, 25° C., 43504, read-out: MIC, Acid treated): 12500 µg/mL (≈ 29.7 mM)
MBC (H. pylori [2]; 2 h, pH ~2.0, 2 h, 25° C., HP001, read-out: MBC, Acid treated): < 12500 µg/mL
MIC (H. pylori [2]; 2 h, pH ~2.0, 2 h, 25° C., HP001, read-out: MIC, Acid treated): 12500 µg/mL (≈ 29.7 mM)
MBC (H. pylori [2]; not acid treated, 43504, read-out: MBC, Control): < 6250 µg/mL
MIC (H. pylori [2]; not acid treated, 43504, read-out: MIC, Control): 6250 µg/mL (≈ 14.8 mM)
MBC (H. pylori [2]; not acid treated, HP001, read-out: MBC, Control): 12500 µg/mL (≈ 29.7 mM)
MIC (H. pylori [2]; not acid treated, HP001, read-out: MIC, Control): 6250 µg/mL (≈ 14.8 mM)
increase in MIC and MBC values upon exposure to acid (H. pylori [2]; pH 2.0 for 2 hours): about 2 fold
morphological alteration (fluorescence microscopy) ([3]; 3.125 mg/mL (so in the source)): resembled almost like control with some deformation
morphological alteration (fluorescence microscopy) ([3]; 6.25 and […] (so in the source)): progressively deteriorating cell population leading to more of non-viable cells (green fluorescence) and coccid formation
morphological alteration (transmission electron microscope) (H. pylori ATCC 43504; 6.25 μg/mL): only few bacteria with intact shape and structure
morphological alteration (transmission electron micrographs) (H. pylori ATCC 43504; 6.25 or […]): induced swelling and vacuole like structures in the cytoplasm of H. pylori cells
morphological alteration (transmission electron microscope) (H. pylori ATCC 43504; […]): most cells were found to be progressively swollen and destroyed
IC50 [4]: 23.7 µM
Percent inhibition of H^+, K^+-ATPase activity ([4]; 1 mg/assay (so in the source)): 20%
Percent inhibition of H^+, K^+-ATPase activity ([4]; 5 mg/assay (so in the source)): 30%
inhibition of H^+,K^+-ATPase ([4]; dose range of 1-10 μg/assay): 10-50%
IC50 (gastric parietal cell [5]; Oryctolagus cuniculus, rabbit gastric parietal cell, aminopyrine uptake ratio): ~5 µg/mL
fold less potent than omeprazole in inhibiting basal acid secretion (gastric parietal cell [5]; parietal cells): 2-3 fold
potency relative to cimetidine, basal acid secretion (gastric parietal cell [5]; parietal cells): much more potent than cimetidine
IC50 (gastric parietal cell [6]; Oryctolagus cuniculus, rabbit gastric parietal cell): ~15 µg/mL
activity relative to cimetidine, histamine-stimulated secretion (gastric parietal cell [6]): more active than cimetidine
fold less potent than omeprazole in inhibiting histamine-stimulated secretion (gastric parietal cell [6]): about 5 fold
